From ChEMBL document CHEMBL3525908, “Chronic doxorubicin cardiotoxicity modulates cardiac cytochrome P450-mediated arachidonic acid metabolism in rats” (Drug Metab Dispos, 2012)

Legend:
CYP4F5 [1] = test: Cardiotoxicity in Sprague-Dawley rat assessed as increase in CYP4F5 gene expression level administered as cumulative dose of 15 mg/kg, ip divided into 6 injections for 2 weeks followed by compound washout period of 14 days by RT-PCR analysis relative to control; type: toxicity, organism-based; design: dose 15 mg/kg, route intraperitoneal; settings: heart
Rattus norvegicus [2] = test: Cardiotoxicity in Sprague-Dawley rat assessed as increase in CYP2J3 gene expression level administered as cumulative dose of 15 mg/kg, ip divided into 6 injections for 2 weeks followed by compound washout period of 14 days by RT-PCR analysis relative to control; type: toxicity, organism-based; design: dose 15 mg/kg, route intraperitoneal; settings: in vivo, 336 h
Rattus norvegicus [3] = test: Induction of CYP450-mediated arachidonic acid metabolism in Sprague-Dawley rat heart microsomes assessed as 11,12-EET formation administered as cumulative dose of 15 mg/kg, ip divided into 6 injections for 2 weeks followed by compound washout period of 14 days by LC-ESI-MS analysis relative to control; type: ADME, organism-based; design: dose 15 mg/kg, route intraperitoneal; settings: 336 h
Rattus norvegicus [4] = test: Toxicity in Sprague-Dawley rat assessed as inhibition of CYP2C11 gene expression in liver administered as cumulative dose of 15 mg/kg, ip divided into 6 injections for 2 weeks followed by compound washout period of 14 days by RT-PCR analysis relative to control; type: organism-based; design: dose 15 mg/kg, route intraperitoneal; settings: in vivo, 336 h
H9c2 [5] = test: Cytotoxicity against rat H9c2 cells assessed as reduction in ANP mRNA expression at 1 uM after 6 hrs in presence of t-AUCB; type: cell-based; settings: h9c2, 6 h
Rattus norvegicus [6] = test: Toxicity in Sprague-Dawley rat assessed as CYP2C11 gene expression in kidney administered as cumulative dose of 15 mg/kg, ip divided into 6 injections for 2 weeks followed by compound washout period of 14 days by RT-PCR analysis relative to control; type: organism-based; design: dose 15 mg/kg, route intraperitoneal; settings: in vivo, 336 h
CYP450 = test: Induction of CYP450-mediated arachidonic acid metabolism in Sprague-Dawley rat heart microsomes assessed as 11,12-DHET formation administered as cumulative dose of 15 mg/kg, ip divided into 6 injections for 2 weeks followed by compound washout period of 14 days by LC-ESI-MS analysis relative to control; type: ADME, organism-based; design: dose 15 mg/kg, route intraperitoneal; settings: probe arachidonic acid
Rattus norvegicus [7] = test: Induction of CYP450-mediated arachidonic acid metabolism in Sprague-Dawley rat heart microsomes assessed as 5,6-EET formation administered as cumulative dose of 15 mg/kg, ip divided into 6 injections for 2 weeks followed by compound washout period of 14 days by LC-ESI-MS analysis relative to control; type: ADME, organism-based; design: dose 15 mg/kg, route intraperitoneal; settings: 336 h
Rattus norvegicus [8] = test: Cardiotoxicity in Sprague-Dawley rat assessed as increase in beta-MHC gene expression level administered as cumulative dose of 15 mg/kg, ip divided into 6 injections for 2 weeks followed by compound washout period of 14 days by RT-PCR analysis relative to control; type: toxicity, organism-based; design: dose 15 mg/kg, route intraperitoneal; settings: 336 h
Rattus norvegicus [9] = test: Cardiotoxicity in Sprague-Dawley rat assessed as increase in p53 gene expression level administered as cumulative dose of 15 mg/kg, ip divided into 6 injections for 2 weeks followed by compound washout period of 14 days by RT-PCR analysis relative to control; type: toxicity, organism-based; design: dose 15 mg/kg, route intraperitoneal; settings: in vivo, 336 h
Rattus norvegicus [10] = test: Toxicity in Sprague-Dawley rat assessed as inhibition of CYP2B2 gene expression in liver administered as cumulative dose of 15 mg/kg, ip divided into 6 injections for 2 weeks followed by compound washout period of 14 days by RT-PCR analysis relative to control; type: organism-based; design: dose 15 mg/kg, route intraperitoneal; settings: in vivo, 336 h
Rattus norvegicus [11] = test: Toxicity in Sprague-Dawley rat assessed as CYP4F1 gene expression in liver administered as cumulative dose of 15 mg/kg, ip divided into 6 injections for 2 weeks followed by compound washout period of 14 days by RT-PCR analysis relative to control; type: organism-based; design: dose 15 mg/kg, route intraperitoneal; settings: in vivo, 336 h
Rattus norvegicus [12] = test: Cardiotoxicity in Sprague-Dawley rat assessed as increase in sEH activity in heart microsomes administered as cumulative dose of 15 mg/kg, ip divided into 6 injections for 2 weeks followed by compound washout period of 14 days by RT-PCR analysis relative to control; type: toxicity, organism-based; design: dose 15 mg/kg, route intraperitoneal; settings: 336 h
CYP4F5 [13] = test: Toxicity in Sprague-Dawley rat assessed as induction of CYP4F5 gene expression in kidney administered as cumulative dose of 15 mg/kg, ip divided into 6 injections for 2 weeks followed by compound washout period of 14 days by RT-PCR analysis relative to control; type: organism-based; design: dose 15 mg/kg, route intraperitoneal
Rattus norvegicus [14] = test: Induction of epoxygenase-mediated arachidonic acid metabolism in Sprague-Dawley rat heart microsomes assessed as EET/DHET formation administered as cumulative dose of 15 mg/kg, ip divided into 6 injections for 2 weeks followed by compound washout period of 14 days by LC-ESI-MS analysis relative to control; type: ADME, organism-based; design: dose 15 mg/kg, route intraperitoneal; settings: 336 h
Rattus norvegicus [15] = test: Toxicity in Sprague-Dawley rat assessed as sEH gene expression in kidney administered as cumulative dose of 15 mg/kg, ip divided into 6 injections for 2 weeks followed by compound washout period of 14 days by RT-PCR analysis; type: organism-based; design: dose 15 mg/kg, route intraperitoneal; settings: in vivo, 336 h
Rattus norvegicus [16] = test: Toxicity in Sprague-Dawley rat assessed as CYP4F4 gene expression in kidney administered as cumulative dose of 15 mg/kg, ip divided into 6 injections for 2 weeks followed by compound washout period of 14 days by RT-PCR analysis relative to control; type: organism-based; design: dose 15 mg/kg, route intraperitoneal; settings: in vivo, 336 h
H9c2 [17] = test: Cytotoxicity against rat H9c2 cells assessed as reduction in ANP mRNA expression at 1 uM after 6 hrs; type: cell-based; settings: h9c2, 6 h
CYP4A3 = test: Cardiotoxicity in Sprague-Dawley rat assessed as increase in CYP4A3 gene expression level administered as cumulative dose of 15 mg/kg, ip divided into 6 injections for 2 weeks followed by compound washout period of 14 days by RT-PCR analysis relative to control; type: toxicity, organism-based; design: dose 15 mg/kg, route intraperitoneal; settings: heart
Rattus norvegicus [18] = test: Cardiotoxicity in Sprague-Dawley rat assessed as increase in Bax gene expression level administered as cumulative dose of 15 mg/kg, ip divided into 6 injections for 2 weeks followed by compound washout period of 14 days by RT-PCR analysis relative to control; type: toxicity, organism-based; design: dose 15 mg/kg, route intraperitoneal; settings: in vivo, 336 h
Rattus norvegicus [19] = test: Toxicity in Sprague-Dawley rat assessed as induction of TNF-alpha gene expression in kidney administered as cumulative dose of 15 mg/kg, ip divided into 6 injections for 2 weeks followed by compound washout period of 14 days by RT-PCR analysis relative to control; type: organism-based; design: dose 15 mg/kg, route intraperitoneal; settings: 336 h
Rattus norvegicus [20] = test: Toxicity in Sprague-Dawley rat assessed as induction of IL-6 gene expression in liver administered as cumulative dose of 15 mg/kg, ip divided into 6 injections for 2 weeks followed by compound washout period of 14 days by RT-PCR analysis relative to control; type: organism-based; design: dose 15 mg/kg, route intraperitoneal; settings: 336 h
H9c2 [21] = test: Cytotoxicity against rat H9c2 cells assessed as reduction in BNP mRNA expression at 1 uM after 6 hrs in presence of t-AUCB; type: cell-based; settings: h9c2, 6 h
Rattus norvegicus [22] = test: Toxicity in Sprague-Dawley rat assessed as CYP4A3 gene expression in liver administered as cumulative dose of 15 mg/kg, ip divided into 6 injections for 2 weeks followed by compound washout period of 14 days by RT-PCR analysis relative to control; type: organism-based; design: dose 15 mg/kg, route intraperitoneal; settings: in vivo, 336 h
Rattus norvegicus [23] = test: Cardiotoxicity in Sprague-Dawley rat assessed as increase in ANP gene expression level administered as cumulative dose of 15 mg/kg, ip divided into 6 injections for 2 weeks followed by compound washout period of 14 days by RT-PCR analysis relative to control; type: toxicity, organism-based; design: dose 15 mg/kg, route intraperitoneal; settings: 336 h
Rattus norvegicus [24] = test: Cardiotoxicity in Sprague-Dawley rat assessed as increase in sEH activity in heart cytosol administered as cumulative dose of 15 mg/kg, ip divided into 6 injections for 2 weeks followed by compound washout period of 14 days by RT-PCR analysis relative to control; type: toxicity, organism-based; design: dose 15 mg/kg, route intraperitoneal; settings: 336 h

COc1cccc2c1C(=O)c1c(O)c3c(c(O)c1C2=O)C[C@@](O)(C(=O)CO)C[C@@H]3O[C@H]1C[C@H](N)[C@H](O)[C@H](C)O1 [DOXORUBICIN]
fold induction at 336 h (CYP4F5 [1]): 2
Activity (Rattus norvegicus [2]): Non-toxic
Activity (Rattus norvegicus [3]): Active
Ratio (Rattus norvegicus [4]): 0.7
Activity (H9c2 [5]): Toxic
Activity (Rattus norvegicus [6]): Non-toxic
fold induction at 336 h (CYP450): 1.9
Activity (Rattus norvegicus [7]): Active
fold induction at 15 mg/kg (Rattus norvegicus [8]): 2.7
Ratio (Rattus norvegicus [9]): 1.7
Ratio (Rattus norvegicus [10]): 0.5
Activity (Rattus norvegicus [11]): Non-toxic
Ratio (Rattus norvegicus [12]): 1.6
fold induction at 336 h (CYP4F5 [13]): 1.7
Activity (Rattus norvegicus [14]): Toxic
Activity (Rattus norvegicus [15]): Non-toxic
Activity (Rattus norvegicus [16]): Non-toxic
Activity (H9c2 [17]): Non-toxic
fold induction at 336 h (CYP4A3): 2
Ratio (Rattus norvegicus [18]): 1.9
fold induction at 15 mg/kg (Rattus norvegicus [19]): 2.9
fold induction at 15 mg/kg (Rattus norvegicus [20]): 4.5
Activity (H9c2 [21]): Toxic
Activity (Rattus norvegicus [22]): Non-toxic
fold induction at 15 mg/kg (Rattus norvegicus [23]): 3.5
Ratio (Rattus norvegicus [24]): 1.3
